Results as given in article PMC5971337, “Development of an Ultra-High Performance Liquid Chromatography Method for Simultaneous Determination of Six Active Compounds in Fructus aurantii and Rat Plasma and Its Application to a Comparative Pharmacokinetic Study in Rats Administered with Different Doses” (Journal of Analytical Methods in Chemistry, 2018).
Read-outs that look alike come from different tables or passages of the source.

Key:
[1] = Pharmacokinetic study in rats after oral administration of FA decoction; type: in vivo, Sprague-Dawley rats; conditions: for Cmax / AUC(0-t) / Tmax / MRT last / half-life: male, Sprague-Dawley, rat plasma; for AUC(0-t): last dose day 8, plasma treated with β-glucuronidase; for MRT last: read-out: MRT(0–t); for half-life: read-out: t 1/2z (converted); for AUC(0–t) elevation, 30 g/kg compared with the 15 g/kg group / C max elevation, 30 g/kg compared with the 15 g/kg group: rat, oral FA decoction; for detection in rat plasma: even after orally administering 30 g/kg FA decoction
Protocol: 16 male Sprague-Dawley (SD) rats weighing 200 ± 20 g were from experimental animal center of Central South University and fostered in an environmentally controlled room (temperature: 22–26°C, humidity: 40–60%, and 12 h dark-light cycle) for 1 week before the experiment. All experimental procedures were implemented strictly according to the guidelines of the Animal Care and Use Committee, Central South University, China. This research was approved by the Animal Ethics Committee of Central South University. Rats were randomly divided into 2 groups (n=8): low-dose group (15 g/kg FA decoction) and high-dose group (30 g/kg FA decoction). The two groups were given by gavage twice a day for 7 days in succession. At the 7th day of medication, the rats were prohibited feeding for about 12 hours without restriction of water. On day 8, the rats were orally administered for the last time at 8 am, and then plasma samples (0.5 mL) were collected from the caudal vein at 5, 10, 20, 30, 60, 90, 240, 360, 480, and 600 min into heparinized vacuum tubes, followed by centrifugation at 3500 rpm (4°C) for 10 min. Then, the plasmas were obtained and immediately stored at −20°C until analysis. During the experiment, the rats were injected intraperitoneally with physiological saline for maintaining fluid balance.
(§1) Standard stock solutions were prepared by dissolving reference standards in methanol to yield concentrations of 198 µg/mL for meranzin hydrate, 128 µg/mL for naringenin, 273 µg/mL for hesperetin, and 4.56 µg/mL for SMZ. All solutions were stored at 4°C. QC samples were prepared at three concentration levels containing meranzin hydrate (6.5, 206, 3300 ng/mL), naringenin (13.9, 222, 3555 ng/mL), and hesperetin (3.7, 29.5, 236 ng/mL). Plasmas (100 µL) were spiked with β-glucuronidase (5 µL) and acetic acid buffer solution (10 µL), subsequently vortexed for 10 seconds, and incubated for 4 h at 37°C. Then, SMZ (50 µL) and methanol (135 µL) were added, ultrasound was done for 10 min, and centrifugation at 12000 rpm (4°C) for 10 min was performed. The supernatant (50 µL) was transferred, distilled water (50 µL) was added, then ultrasound and centrifugation again. At last, the supernatant of 5 µL was injected into UPLC.
The database was set up with the SPSS 17.0 software package from SPSS Inc., Chicago, Illinois (US). Differences between the two groups were analyzed by one-way analysis of variance. A two-tailed P value of <0.05 was considered statistically significant. The DAS 3.2.8 pharmacokinetic program (Chinese Pharmacological Society) was used to process pharmacokinetic parameters.
The validated method was applied to determine the plasma concentrations of meranzin hydrate, naringenin, and hesperetin in rats after oral administration of FA decoction at a dose of 15 g/kg and 30 g/kg body weight. The mean plasma concentration-time profiles of meranzin hydrate, naringenin, and hesperetin are shown in Figure 4, and the estimated pharmacokinetic parameters are illustrated in Table 5. According to DAS software, the optimal metabolism process of the 3 components in rats could be depicted as a two-compartment pharmacokinetic model.

[2] = Stability of the analytical solution of FA decoction at environmental temperature; type: physicochemical; conditions: FA decoction 1.7 g/mL
Protocol: The raw herb (200 g) was immersed in distilled water (1 : 8, w/v) for 0.5 h at room temperature and thereafter was boiled for 0.5 h. The filtrate was collected, and the residue was boiled again in distilled water (1 : 6, w/v) for 0.5 h. The filtrates were mixed together, filtered through a 0.45 µm porous filtration membrane, then farther concentrated in the rotary evaporator to a final concentration equivalent to 1.7 g/mL FA, and stored at −20°C until analyzed. In the experiment, FA decoction (100 µL) was precisely measured, 900 µL methanol was added, then ultrasound was done for 5 min, and it was centrifuged at 15000 rpm (4°C) for 10 min; the supernatant liquor (20 µL) was shifted to a 1.5 mL EP tube, methanol-water (780 µL) was added, and ultrasound was performed, and it was centrifuged at 15000 rpm (4°C) for 10 min again. Finally, 5 µL of the supernatant liquor was injected into the apparatus for detection.
The stability of the analytical solution at environmental temperature was studied by detecting sample solution at 0, 2, 4, 8, 12, and 24 h. The RSD values of peak areas were taken for assessment.

[3] = Stability of QC samples in rat plasma (short-term, freeze-thaw, long-term); type: in vitro ADME; conditions: for Short-term stability, Mean ± SD: room temperature for 4 h; for Freeze-thaw stability, Mean ± SD: three freeze (−20°C) and thaw cycles; for Long-term stability, Mean ± SD: −20°C for 20 days
Protocol: as §1
(5) Stability. QC plasma samples of each concentration at low, medium, and high levels were detected. The freeze and thaw stability were investigated after three freeze (−20°C) and thaw (room temperature) cycles on consecutive days. Long-term stability was studied by storing QC samples at −20°C for 20 days. Short-term stability was assessed by analyzing QC samples kept at room temperature for 4 h.

[4] = oral FA decoction 15 g/kg twice a day for 7 days, n=8
[5] = oral FA decoction 30 g/kg twice a day for 7 days, n=8
[6] = high level (spiked 3300.0 / 3555.0 / 236.0 ng/mL)
[7] = low level (spiked 6.5 / 13.9 / 3.7 ng/mL)
[8] = medium level (spiked 206.0 / 222.0 / 29.5 ng/mL)

COc1ccc([C@@H]2CC(=O)c3c(O)cc(O)cc3O2)cc1O [Hesperetin, hesperetin]
Cmax ([1]; oral, 15 g/kg group): 83.9 ± 14.2 ng/mL | Cmax ([1]; oral, 30 g/kg group): 174 ± 39 ng/mL | AUC(0-t) [1, 4]: 508 ± 88 ng·h/mL | Cmax ([1]; oral FA decoction 15 g/kg, n=8): 83.9 ± 14.2 ng/mL | Tmax ([1]; oral FA decoction 15 g/kg, n=8): 1 ± 0.38 h | MRT last ([1]; oral FA decoction 15 g/kg, n=8): 4.27 ± 0.27 h | half-life ([1]; oral FA decoction 15 g/kg, n=8): 8.05 ± 3.1 h | AUC(0-t) [1, 5]: 955 ± 227 ng·h/mL | Cmax ([1]; oral FA decoction 30 g/kg, n=8): 174 ± 39 ng/mL | Tmax ([1]; oral FA decoction 30 g/kg, n=8): 1.31 ± 0.26 h | MRT last ([1]; oral FA decoction 30 g/kg, n=8): 4.15 ± 0.35 h | half-life ([1]; oral FA decoction 30 g/kg, n=8): 6.56 ± 3.35 h | AUC(0–t) elevation, 30 g/kg compared with the 15 g/kg group [1]: 1.88 fold | C max elevation, 30 g/kg compared with the 15 g/kg group [1]: 2.08 fold | Stability in FA decoction, Content ([2]; 0h): 0.19 mg/mL | Stability in FA decoction, Content ([2]; 2h): 0.19 mg/mL | Stability in FA decoction, Content ([2]; 4h): 0.18 mg/mL | Stability in FA decoction, Content ([2]; 8h): 0.18 mg/mL | Stability in FA decoction, Content ([2]; 12h): 0.19 mg/mL | Stability in FA decoction, Content ([2]; 24h): 0.18 mg/mL | Short-term stability, Mean ± SD [3, 6]: 234.18 ± 22.13 ng/mL | Freeze-thaw stability, Mean ± SD [3, 6]: 235.03 ± 19.71 ng/mL | Long-term stability, Mean ± SD [3, 6]: 235.66 ± 14.53 ng/mL | Short-term stability, Mean ± SD [3, 7]: 3.63 ± 0.87 ng/mL | Freeze-thaw stability, Mean ± SD [3, 7]: 3.52 ± 0.43 ng/mL | Long-term stability, Mean ± SD [3, 7]: 3.67 ± 0.57 ng/mL | Short-term stability, Mean ± SD [3, 8]: 27.88 ± 3.50 ng/mL | Freeze-thaw stability, Mean ± SD [3, 8]: 28.35 ± 4.03 ng/mL | Long-term stability, Mean ± SD [3, 8]: 28.28 ± 1.65 ng/mL

COc1ccc2ccc(=O)oc2c1C[C@@H](O)C(C)(C)O [Meranzin hydrate, meranzin hydrate]
AUC(0-t) [1, 4]: 1530 ± 252 ng·h/mL | Cmax ([1]; oral FA decoction 15 g/kg, n=8): 505 ± 64.3 ng/mL | Tmax ([1]; oral FA decoction 15 g/kg, n=8): 1 ± 0.27 h | MRT last ([1]; oral FA decoction 15 g/kg, n=8): 2.77 ± 0.34 h | half-life ([1]; oral FA decoction 15 g/kg, n=8): 2.67 ± 0.81 h | AUC(0-t) [1, 5]: 7370 ± 887 ng·h/mL | Cmax ([1]; oral FA decoction 30 g/kg, n=8): 1830 ± 221 ng/mL | Tmax ([1]; oral FA decoction 30 g/kg, n=8): 1.25 ± 0.27 h | MRT last ([1]; oral FA decoction 30 g/kg, n=8): 3.21 ± 0.22 h | half-life ([1]; oral FA decoction 30 g/kg, n=8): 2.23 ± 0.59 h | AUC(0–t) elevation, 30 g/kg compared with the 15 g/kg group [1]: 4.8 fold | C max elevation, 30 g/kg compared with the 15 g/kg group [1]: 3.62 fold | Stability in FA decoction, Content ([2]; 0h): 0.34 mg/mL | Stability in FA decoction, Content ([2]; 2h): 0.36 mg/mL | Stability in FA decoction, Content ([2]; 4h): 0.33 mg/mL | Stability in FA decoction, Content ([2]; 8h): 0.34 mg/mL | Stability in FA decoction, Content ([2]; 12h): 0.35 mg/mL | Stability in FA decoction, Content ([2]; 24h): 0.34 mg/mL

COc1ccc([C@@H]2CC(=O)c3c(O)cc(O[C@@H]4O[C@H](CO[C@@H]5O[C@@H](C)[C@H](O)[C@@H](O)[C@H]5O)[C@@H](O)[C@H](O)[C@H]4O)cc3O2)cc1O [hesperidin]
detection in rat plasma [1]: could not been detected | Stability in FA decoction, Content ([2]; 0h): 4.95 mg/mL | Stability in FA decoction, Content ([2]; 2h): 4.83 mg/mL | Stability in FA decoction, Content ([2]; 4h): 4.71 mg/mL | Stability in FA decoction, Content ([2]; 8h): 5.02 mg/mL | Stability in FA decoction, Content ([2]; 12h): 4.87 mg/mL | Stability in FA decoction, Content ([2]; 24h): 4.82 mg/mL

C[C@@H]1O[C@@H](O[C@H]2[C@H](Oc3cc(O)c4c(c3)O[C@H](c3ccc(O)cc3)CC4=O)O[C@H](CO)[C@@H](O)[C@@H]2O)[C@H](O)[C@H](O)[C@H]1O [naringin]
detection in rat plasma [1]: could not been detected | Stability in FA decoction, Content ([2]; 0h): 25.24 mg/mL | Stability in FA decoction, Content ([2]; 2h): 25.35 mg/mL | Stability in FA decoction, Content ([2]; 4h): 24.92 mg/mL | Stability in FA decoction, Content ([2]; 8h): 25.45 mg/mL | Stability in FA decoction, Content ([2]; 12h): 24.98 mg/mL | Stability in FA decoction, Content ([2]; 24h): 25.15 mg/mL

COc1ccc([C@@H]2CC(=O)c3c(O)cc(O[C@@H]4O[C@H](CO)[C@@H](O)[C@H](O)[C@H]4O[C@@H]4O[C@@H](C)[C@H](O)[C@@H](O)[C@H]4O)cc3O2)cc1O [neohesperidin]
detection in rat plasma [1]: could not been detected | Stability in FA decoction, Content ([2]; 0h): 14.33 mg/mL | Stability in FA decoction, Content ([2]; 2h): 14.28 mg/mL | Stability in FA decoction, Content ([2]; 4h): 13.98 mg/mL | Stability in FA decoction, Content ([2]; 8h): 14.40 mg/mL | Stability in FA decoction, Content ([2]; 12h): 14.11 mg/mL | Stability in FA decoction, Content ([2]; 24h): 14.08 mg/mL
